From PMC8286840, “Identifying SARS-CoV-2 antiviral compounds by screening for small molecule inhibitors of Nsp3 papain-like protease” (Biochemical Journal, 2021) come the findings set out here.

Test [1] has as its target T1, SARS-CoV-2 PLpro (nsp3 1564–1878) (Severe acute respiratory syndrome coronavirus 2, UniProt P0DTD1). The experiment in a line: biochemical. Also on record: FRET-quenched peptide (Pro3) cleavage by PLpro, 10 min pre-incubation, slope over 20 min, normalised to no-compound control. The note with it: low concentration screen, read-out: % of control remaining.
For test [2], the target named is T1, SARS-CoV-2 PLpro (nsp3 1564–1878). The experiment in a line: biochemical. The note with it: high concentration screen, read-out: % of control remaining. Also on record: FRET-quenched peptide (Pro3) cleavage by PLpro, 10 min pre-incubation, slope over 20 min, normalised to no-compound control.

SMILES strings stand for the structures. Where a name gives a salt, the structure may show the parent alone. Read-outs that look alike come from different tables or passages of the source. *1 amine or outer side, *2 acyl side, *3 side chain or, on linkers, in order; H or OH if unused. Where a SMILES comes first, the peptide text is derived from it. Side-chain parts run from the residue outwards. [ ]: non-standard residue; d: D form. The star is where a group is joined. Ethylenediamine = C(CN[*:2])N[*:1]; Hyp = O=C(O)[C@@H]1C[C@@H](O)CN1; Phg = N[C@H](C(=O)O)c1ccccc1; CO = O=C([*:1])[*:2]; Bn = c1ccc(C*)cc1

`O=S(=O)(NCc1ccccn1)c1ccc(Br)c2ccccc12` [Pyrabactin]: the remaining activity at 1.25 µM in test [1] (Well no.=5918) turned out to be 96.4%. Also, in test [2] (Well no.=5918), the remaining activity at 3.75 µM amounted to 95.8%.
On to `N#C[C@@H]1CCCN1C(=O)CNC12CC3CC(CC(O)(C3)C1)C2` [Vildagliptin (LAF-237)], for which the remaining activity at 1.25 µM in test [1] (Well no.=4885) was determined as 99.1%. The remaining activity at 3.75 µM in test [2] (Well no.=4885) came out at 99.9%.
For `CC1=C2C[C@H]3[C@@H](CC=C4C[C@@H](O)CC[C@@]43C)[C@@H]2CC[C@]12O[C@@H]1C[C@H](C)CN[C@H]1[C@H]2C` [Cyclopamine], the remaining activity at 1.25 µM in test [1] (Well no.=3181) turned out to be 107%. The remaining activity at 3.75 µM in test [2] (Well no.=3181) worked out at 106%.
Consider `CC(C)(C)c1ccc(S(=O)(=O)Nc2ccc(Cl)cc2C(=O)c2cc[n+]([O-])cc2)cc1` [Vercirnon], for which the remaining activity at 1.25 µM in test [1] (Well no.=8645) came to 103%. In addition, the remaining activity at 3.75 µM in test [2] (Well no.=8645) came to 103%.
With `CCN(CC)Cc1ccc2cc(COC(=O)Nc3ccc(C(=O)NO)cc3)ccc2c1` [ITF2357 (Givinostat)], the remaining activity at 1.25 µM in test [1] (Well no.=5110) was 102%. For the same compound, in test [2] (Well no.=5110), the remaining activity at 3.75 µM was 106%.
For `CCCCCCCCCCCCCC(=O)N[C@H](C)[C@@H](O)c1ccccc1` [D-erythro MAPP], the remaining activity at 1.25 µM in test [1] (Well no.=4257) worked out at 105%. Also, the remaining activity at 3.75 µM in test [2] (Well no.=4257) is 98.9%.
In the case of `Cc1onc(-c2ccccc2)c1-c1ccc(S(N)(=O)=O)cc1` [Valdecoxib], the remaining activity at 1.25 µM in test [1] (Well no.=4694) came out at 97.5%. The remaining activity at 3.75 µM in test [2] (Well no.=4694) turned out to be 95.9%.
As to `Nc1cc(Nc2ccc(S(N)(=O)=O)cc2)ncn1` [PNU112455A], the remaining activity at 1.25 µM in test [1] (Well no.=5446) came to 100%. Moreover, the remaining activity at 3.75 µM in test [2] (Well no.=5446) stood at 102%.
For the compound `COc1ccc(-c2cc(=S)ss2)cc1` [Anethole-trithione], the remaining activity at 1.25 µM in test [1] (Well no.=1856) turned out to be 91.9%. Further, in test [2] (Well no.=1856), the remaining activity at 3.75 µM was 92.4%.
Take `CC[C@]1(O)C[C@@H]2CN(CCc3c([nH]c4ccccc34)[C@@](C(=O)OC)(c3cc4c(cc3OC)N(C)[C@H]3[C@@](O)(C(=O)OC)[C@H](OC(C)=O)[C@]5(CC)C=CCN6CC[C@]43[C@@H]65)C2)C1` [Vinblastine]: in test [1] (Well no.=2165), the remaining activity at 1.25 µM was determined as 101%. In test [2] (Well no.=2165), the remaining activity at 3.75 µM was determined as 103%.
In the case of `CC(C)C[C@H](NC(=O)[C@@H](O)[C@H](N)Cc1ccc([N+](=O)[O-])cc1)C(=O)O` [(2S,3R)-3-Amino-2-hydroxy-4-(4-nitrophenyl)butanoyl-L-leucine hydrochloride], the remaining activity at 1.25 µM in test [1] (Well no.=67) was found to be 106%. In addition, the remaining activity at 3.75 µM in test [2] (Well no.=67) worked out at 104%.
With `COc1ccc(C2=N[C@@H](c3ccc(Cl)cc3)[C@@H](c3ccc(Cl)cc3)N2C(=O)N2CCNC(=O)C2)c(OC(C)C)c1` [Nutlin (3a)], the remaining activity at 1.25 µM in test [1] (Well no.=6440) was determined as 92.9%; in test [1] (Well no.=7746), 92%. Moreover, the remaining activity at 3.75 µM was 93.4% in test [2] (Well no.=6440) and 93.2% in test [2] (Well no.=7746).
For `CC[C@]1(O)C[C@@H]2CN(CCc3c([nH]c4ccccc34)[C@@](C(=O)OC)(c3cc4c(cc3OC)N(C)[C@H]3[C@@](O)(C(=O)OC)[C@H](OC(C)=O)[C@]5(CC)C=CCN6CC[C@]43[C@@H]65)C2)C1` [Vinblastine sulfate salt], the remaining activity at 1.25 µM in test [1] (Well no.=1288) is 111%. For the same compound, the remaining activity at 3.75 µM in test [2] (Well no.=1288) is 108%.
As to `COc1cc2nccc(Oc3ccc(NC(=O)NC4CC4)c(Cl)c3)c2cc1C(N)=O` [E7080], in test [1] (Well no.=2981), the remaining activity at 1.25 µM worked out at 98%. In test [2] (Well no.=2981), the remaining activity at 3.75 µM was 98.1%.
Turning to `NCCCC[C@@H]1NC(=O)[C@@H](Cc2c[nH]c3ccccc23)NC(=O)[C@H](c2ccccc2)NC(=O)[C@@H]2C[C@@H](OC(=O)NCCN)CN2C(=O)[C@H](Cc2ccccc2)NC(=O)[C@H](Cc2ccc(OCc3ccccc3)cc2)NC1=O` [Pasireotide (ditrifluoroacetate)] (cyclo([Hyp]([CO-Ethylenediamine])[Phg][dW]KY(Bn)F)), the remaining activity at 1.25 µM in test [1] (Well no.=7988) stood at 96.1%. In addition, the remaining activity at 3.75 µM in test [2] (Well no.=7988) was 101%.
Consider `CC(C)n1nc(-c2ccc3oc(N)nc3c2)c2c(N)ncnc21` [INK 128 (MLN0128)], for which the remaining activity at 1.25 µM in test [1] (Well no.=5133) amounted to 98.6%. The remaining activity at 3.75 µM in test [2] (Well no.=5133) came out at 104%.
